Source: patent US6872805B2 (Bristol-Myers Squibb Company, priority 2000, dated 2005)

Experiments:
[1] = test system: HCV replicon in Huh7 cells; test: HCV replicon cell-based assay; parameters: species or system HCV strain 1B; conditions: Hepatitis C virus, Huh-7, 96 h; HCV replicon, Huh7 cells, 4 days; activity ranges; read-out: EC50
Source text: An HCV replicon whole cell system was established as described by Lohmann V, Korner F, Koch J, Herian U, Theilmann L, Bartenschlager R., Science 285(5424):110-3 (1999). This system enabled us to evaluate the effects of our HCV Protease compounds on HCV RNA replication. Briefly, using the HCV strain 1B sequence described in the Lohmann paper (Assession number:AJ238799), an HCV cDNA was generated encoding the 5′ internal ribosome entry site (IRES), the neo gene, the EMCV-IRES and the HCV nonstructural proteins, NS3-NS5B, and 3′ NTR. […] Resulting cell lines were characterized for positive and negative RNA production and protein production over time.
Huh7 cells, constitutively expressing the HCV replicon, were grown in DMEM containing 10% FCS (Fetal calf serum) and 1 mg/ml G418 (Gibco-BRL). Cells were seeded the night before (1.5×10^4 cells/well) in 96-well tissue-culture sterile plates. Compound was prepared in DMEM containing 4% FCS, 1:100 Penicillin/Streptomysin, 1:100 L-glutamine and 0.5% DMSO. Compound/DMSO mixes were added to the cells and incubated for 4 days at 37° C. After 4 days, cells were either lyzed using the Rneasy kit (Qiagen) to isolate and purify RNA for an EC50 determination or assessed for cytotoxicity using alamar Blue (Trek Diagnotstic Systems) for a CC50 reading. For an EC50 determination, purified total RNA was normalized using RiboGreen (Jones L J, Yue S T, Cheung C Y, Singer V L, Anal. Chem., 265(2):368-74 (1998)) and relative quantitation of HCV RNA expression assessed using the Taqmann procedure (Kolykhalov A A, Mihalik K, Feinstone S M, Rice C M, Journal of Virology 74, 2046-2051 (2000)). Briefly, RNA made to a volume of 5 μl (≦1 ng) was added to a 20 μl Ready-Mix containing the following: 5×EZ rTth buffer, 3 mM MnOAc2, 3 mM dNTPs, 200 nM forward primer, 600 nM reverse primer, 100 nM probe and rTth polymerase. Samples containing known concentrations of HCV RNA transcript were run as standards. Using the following cycling protocol (95° C., 1 min; 60° C., 0.5 min; 95° C., 2 min; 40 cycles of 94° C., 0.5 min, 60° C.; 1 min; and completing with 60° C., 10 min), HCV RNA expression was quantitated as described in the Perkin Elmer manual. The toxicity of compound (CC50) was determined by adding 1/10th volume of alamar Blue to the media incubating the cells. After 4 hr, the fluorescence signal from each well was read, with an excitation wavelength at 530 nm and an emission wavelength of 580 nm, using the Cytofluor Series 4000 (Perspective Biosystems).

[2] = target: HCV NS3/4A protease complex (Hepatitis C virus genotype 1a, UniProt P27958, C1454S/C1711G); test: Recombinant HCV NS3/4A protease complex FRET peptide assay (strain not stated); assay type: biochemical; conditions: IC50, NS3/4A protease enzyme assay, strain not stated; activity ranges
HCV NS3/4A protease complex, sequence (P27958 1027-1711, stated change not applied): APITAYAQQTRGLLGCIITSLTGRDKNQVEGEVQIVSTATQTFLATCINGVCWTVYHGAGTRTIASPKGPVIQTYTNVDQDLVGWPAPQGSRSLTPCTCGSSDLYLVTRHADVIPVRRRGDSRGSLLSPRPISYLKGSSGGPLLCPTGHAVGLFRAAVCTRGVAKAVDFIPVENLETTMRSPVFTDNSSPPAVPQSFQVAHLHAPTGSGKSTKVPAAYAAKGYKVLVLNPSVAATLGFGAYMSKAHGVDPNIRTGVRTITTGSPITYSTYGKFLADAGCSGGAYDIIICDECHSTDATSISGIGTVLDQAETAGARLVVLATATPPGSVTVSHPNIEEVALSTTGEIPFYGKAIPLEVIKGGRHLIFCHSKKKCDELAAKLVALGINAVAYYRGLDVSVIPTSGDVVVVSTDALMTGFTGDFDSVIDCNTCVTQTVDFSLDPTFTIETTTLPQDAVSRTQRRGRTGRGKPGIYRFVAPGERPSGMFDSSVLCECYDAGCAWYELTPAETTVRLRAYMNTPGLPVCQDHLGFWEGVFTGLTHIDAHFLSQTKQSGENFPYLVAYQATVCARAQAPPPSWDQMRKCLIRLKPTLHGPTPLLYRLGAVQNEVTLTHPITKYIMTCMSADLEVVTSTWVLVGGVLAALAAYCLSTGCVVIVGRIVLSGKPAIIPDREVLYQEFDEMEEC
HCV NS3/4A protease complex, sequence (P27958 1027-1711, stated change not applied): as above

| SMILES | EC50 [1] | IC50 [2] |
| --- | --- | --- |
| C=CC1C[C@]1(NC(=O)[C@@H]1C[C@@H](Oc2cc(-c3ccccc3)nc3cc(OC)ccc23)CN1C(=O)[C@@H](NC(=O)OC(C)(C)C)C(C)(C)C)C(=O)NS(=O)(=O)C(C)C (some centres unmarked) [Compound 27] | < 500 nM | < 50 nM |
| C=CC1C[C@]1(NC(=O)[C@@H]1C[C@@H](Oc2cc(-c3ccccc3)nc3cc(OC)ccc23)CN1C(=O)[C@@H](N)C(C)(C)C)C(=O)NS(=O)(=O)C1CC1 (some centres unmarked) [Compound 28] | < 5000 nM | < 50 nM |
| C=CC1C[C@]1(NC(=O)[C@@H]1C[C@@H](Oc2cc(-c3ccccc3)nc3cc(OC)ccc23)CN1C(=O)[C@@H](NC(=O)OC(C)(C)C)C1CCCC1)C(=O)NS(=O)(=O)C1CC1 (some centres unmarked) [Compound 29] | < 50 nM | < 50 nM |
| C=CC1C[C@]1(NC(=O)[C@@H]1C[C@@H](Oc2cc(-c3ccccc3)nc3cc(OC)ccc23)CN1C(=O)[C@@H](NC(=O)OC(C)(C)C)C1CCCC1)C(=O)NS(=O)(=O)C(C)C (some centres unmarked) [Compound 30] | < 50 nM | < 50 nM |
| C=CC1C[C@]1(NC(=O)[C@@H]1C[C@@H](Oc2cc(-c3ccccc3)nc3cc(OC)ccc23)CN1C(=O)[C@@H](NC(=O)OC(C)(C)C)C(C)C)C(=O)NS(=O)(=O)C1CC1 (some centres unmarked) [Compound 31] | < 50 nM | < 50 nM |
| C=CC1C[C@]1(NC(=O)[C@@H]1C[C@@H](Oc2cc(-c3ccccc3)nc3cc(OC)ccc23)CN1C(=O)[C@@H](NC(=O)OC(C)(C)C)C(C)C)C(=O)NS(=O)(=O)C(C)C (some centres unmarked) [Compound 32] | < 50 nM | < 50 nM |
| C=CC1C[C@]1(NC(=O)[C@@H]1C[C@@H](Oc2cc(-c3ccccc3)nc3cc(OC)ccc23)CN1C(=O)[C@H](CC(C)C)NC(=O)OC(C)(C)C)C(=O)NS(=O)(=O)C1CC1 (some centres unmarked) [Compound 33] | < 50 nM | < 50 nM |
| C=CC1C[C@]1(NC(=O)[C@@H]1C[C@@H](Oc2cc(-c3ccccc3)nc3cc(OC)ccc23)CN1C(=O)[C@H](CC(C)C)NC(=O)OC(C)(C)C)C(=O)NS(=O)(=O)C(C)C (some centres unmarked) [Compound 34] | < 500 nM | < 50 nM |
| C=CC1C[C@]1(NC(=O)[C@@H]1C[C@@H](Oc2cc(-c3ccccc3)nc3cc(OC)ccc23)CN1C(=O)C(NC(=O)OC(C)(C)C)C(C)(C)C)C(=O)NS(=O)(=O)c1cccc2ccccc12 (some centres unmarked) [Compound 35] | < 500 nM | < 50 nM |
| C=CCC[C@](C)(NC(=O)[C@@H]1C[C@@H](Oc2cc(-c3ccccc3)nc3cc(OC)ccc23)CN1C(=O)C(NC(=O)OC(C)(C)C)C(C)(C)C)C(=O)NS(=O)(=O)c1cccc(C)c1 (some centres unmarked) [Compound 36] | < 500 nM | < 50 nM |
| C=CCC[C@](C)(NC(=O)[C@@H]1C[C@@H](Oc2cc(-c3ccccc3)nc3cc(OC)ccc23)CN1C(=O)C(NC(=O)OC(C)(C)C)C(C)(C)C)C(=O)NS(=O)(=O)c1ccc(C)cc1 (some centres unmarked) [Compound 37] | < 50 nM | < 50 nM |
| C=CCC[C@](C)(NC(=O)[C@@H]1C[C@@H](Oc2cc(-c3ccccc3)nc3cc(OC)ccc23)CN1C(=O)C(NC(=O)OC(C)(C)C)C(C)(C)C)C(=O)NS(=O)(=O)c1ccccc1 (some centres unmarked) [Compound 38] | < 50 nM | < 50 nM |
| C=CCC[C@](C)(NC(=O)[C@@H]1C[C@@H](Oc2cc(-c3ccccc3)nc3cc(OC)ccc23)CN1C(=O)C(NC(=O)OC(C)(C)C)C(C)(C)C)C(=O)NS(=O)(=O)c1cccc(C#N)c1 (some centres unmarked) [Compound 40] | < 500 nM | < 50 nM |
| C=CCC[C@](C)(NC(=O)[C@@H]1C[C@@H](Oc2cc(-c3ccccc3)nc3cc(OC)ccc23)CN1C(=O)C(NC(=O)OC(C)(C)C)C(C)(C)C)C(=O)NS(=O)(=O)c1ccc(C#N)cc1 (some centres unmarked) [Compound 41] | < 500 nM | < 50 nM |
| C=CCC[C@](C)(NC(=O)[C@@H]1C[C@@H](Oc2cc(-c3ccccc3)nc3cc(OC)ccc23)CN1C(=O)C(NC(=O)OC(C)(C)C)C(C)(C)C)C(=O)NS(=O)(=O)c1ccccc1Cl (some centres unmarked) [Compound 42] | < 500 nM | < 50 nM |
| C=CCC[C@](C)(NC(=O)[C@@H]1C[C@@H](Oc2cc(-c3ccccc3)nc3cc(OC)ccc23)CN1C(=O)C(NC(=O)OC(C)(C)C)C(C)(C)C)C(=O)NS(=O)(=O)c1cccc(Cl)c1 (some centres unmarked) [Compound 43] | < 500 nM | < 50 nM |
| C=CCC[C@](C)(NC(=O)[C@@H]1C[C@@H](Oc2cc(-c3ccccc3)nc3cc(OC)ccc23)CN1C(=O)C(NC(=O)OC(C)(C)C)C(C)(C)C)C(=O)NS(=O)(=O)c1ccc(Cl)cc1 (some centres unmarked) [Compound 44] | < 500 nM | < 50 nM |
| C=CCC[C@](C)(NC(=O)[C@@H]1C[C@@H](Oc2cc(-c3ccccc3)nc3cc(OC)ccc23)CN1C(=O)C(NC(=O)OC(C)(C)C)C(C)(C)C)C(=O)NS(=O)(=O)c1ccc(F)c(Cl)c1 (some centres unmarked) [Compound 45] | < 500 nM | < 50 nM |
| C=C1C[C@]1(NC(=O)[C@@H]1C[C@@H](Oc2cc(-c3ccccc3)nc3cc(OC)ccc23)CN1C(=O)C(NC(=O)OC(C)(C)C)C(C)(C)C)C(=O)NS(=O)(=O)c1cc(F)ccc1C (some centres unmarked) [Compound 46] | < 500 nM | < 50 nM |
| C=C1C[C@]1(NC(=O)[C@@H]1C[C@@H](Oc2cc(-c3ccccc3)nc3cc(OC)ccc23)CN1C(=O)C(NC(=O)OC(C)(C)C)C(C)(C)C)C(=O)NS(=O)(=O)c1ccccc1C(F)(F)F (some centres unmarked) [Compound 47] | < 500 nM | < 50 nM |
| C=C1C[C@]1(NC(=O)[C@@H]1C[C@@H](Oc2cc(-c3ccccc3)nc3cc(OC)ccc23)CN1C(=O)C(NC(=O)OC(C)(C)C)C(C)(C)C)C(=O)NS(=O)(=O)c1cccc(C(F)(F)F)c1 (some centres unmarked) [Compound 48] | < 500 nM | < 50 nM |
| C=C1C[C@]1(NC(=O)[C@@H]1C[C@@H](Oc2cc(-c3ccccc3)nc3cc(OC)ccc23)CN1C(=O)C(NC(=O)OC(C)(C)C)C(C)(C)C)C(=O)NS(=O)(=O)c1ccc(F)cc1 (some centres unmarked) [Compound 49] | < 500 nM | < 50 nM |
| C=CC1C[C@]1(NC(=O)[C@@H]1C[C@@H](Oc2cc(-c3ccccc3)nc3cc(OC)ccc23)CN1C(=O)[C@@H](NC(=O)OC(C)(C)C)C(C)(C)C)C(=O)NS(=O)(=O)c1ccccc1C#N (some centres unmarked) [Compound 50] | < 5000 nM | < 500 nM |
| C=CC1C[C@]1(NC(=O)[C@@H]1C[C@@H](Oc2cc(-c3ccccc3)nc3cc(OC)ccc23)CN1C(=O)[C@@H](NC(=O)OC(C)(C)C)C(C)(C)C)C(=O)NS(=O)(=O)c1ccccc1[N+](=O)[O-] (some centres unmarked) [Compound 51] | < 500 nM | < 50 nM |
| C=CC1C[C@]1(NC(=O)[C@@H]1C[C@@H](Oc2cc(-c3ccccc3)nc3cc(OC)ccc23)CN1C(=O)[C@@H](NC(=O)OC(C)(C)C)C(C)(C)C)C(=O)NS(=O)(=O)c1ccc([N+](=O)[O-])cc1 (some centres unmarked) [Compound 52] | < 500 nM | < 500 nM |
| C=CC1C[C@]1(NC(=O)[C@@H]1C[C@@H](Oc2cc(-c3ccccc3)nc3cc(OC)ccc23)CN1C(=O)[C@@H](NC(=O)OC(C)(C)C)C(C)(C)C)C(=O)NS(=O)(=O)c1cccc([N+](=O)[O-])c1 (some centres unmarked) [Compound 53] | < 50000 nM | < 50 nM |
| C=C1C[C@]1(NC(=O)[C@@H]1C[C@@H](Oc2cc(-c3ccccc3)nc3cc(OC)ccc23)CN1C(=O)C(NC(=O)OC(C)(C)C)C(C)(C)C)C(=O)NS(=O)(=O)c1ccccc1F (some centres unmarked) [Compound 54] | < 500 nM | < 50 nM |
| C=C1C[C@]1(NC(=O)[C@@H]1C[C@@H](Oc2cc(-c3ccccc3)nc3cc(OC)ccc23)CN1C(=O)C(NC(=O)OC(C)(C)C)C(C)(C)C)C(=O)NS(=O)(=O)c1cccc(Br)c1 (some centres unmarked) [Compound 55] | < 50 nM | < 50 nM |
